Experiments:
Type in all cases: cell-based
Staphylococcus aureus = experiment: agar plate disc-diffusion, antibacterial, Staphylococcus aureus; settings: nutrient agar, 37° C., 48 h
Experimental: (§1) The agar plate disc-diffusion method was applied. […] The discs were then placed onto the surface of agar plates (nutrient agar for bacteria and Sabouraud's dextrose agar for fungi) seeded with the test organism. Each plate contained 15 mL of the agar medium, previously seeded with 0.2 mL of the broth culture of each organism pregrown for 18 h. The plates were incubated at 37° C. for 48 h, and 72 h for fungi. The inhibition zones was measured in mm. Discs impregnated with DMSO were used as a control, and its inhibition zone was subtracted from the tested compound actual inhibition zone.

Bacillus cereus = experiment: agar plate disc-diffusion, antibacterial, Bacillus cereus; settings: nutrient agar, 37° C., 48 h
Experimental: as §1

Pseudomonas aeruginosa = experiment: agar plate disc-diffusion, antibacterial, Pseudomonas aeruginosa; settings: nutrient agar, 37° C., 48 h
Experimental: as §1

Escherichia coli = experiment: agar plate disc-diffusion, antibacterial, Escherichia coli; settings: nutrient agar, 37° C., 48 h
Experimental: as §1

[1] = tested on: Chrysosporium keratinophilum; experiment: agar plate disc-diffusion, antifungal, Chrysosporium keratinophilum; settings: Sabouraud's dextrose agar, 37° C., 72 h
Experimental: as §1

Aspergillus flavus = experiment: agar plate disc-diffusion, antifungal, Aspergillus flavus; settings: Sabouraud's dextrose agar, 37° C., 72 h
Experimental: as §1

[2] = A = concentration of comp. = 10,000 μL
[3] = B = concentration of comp. = 30,000 μL
[4] = C = concentration of comp. = 50,000 μL

## O=C(O)CCn1c(-c2ccc(Cl)cc2)nc(-c2ccc(Br)cc2)c1-c1ccc(Br)cc1 [V, 3-(4,5-bis(4-bromophenyl)-2-(4-chlorophenyl)-1H-imidazol-1-yl)propanoic acid]
Staphylococcus aureus; [2]
  inhibition zone, Staphylococcus aureus, A: 17 mm
Staphylococcus aureus; [3]
  inhibition zone, Staphylococcus aureus, B: 19 mm
Staphylococcus aureus; [4]
  inhibition zone, Staphylococcus aureus, C: 26 mm
Bacillus cereus; [2]
  inhibition zone, Bacillus Cereus, A: 19 mm
Bacillus cereus; [3]
  inhibition zone, Bacillus Cereus, B: 21 mm
Bacillus cereus; [4]
  inhibition zone, Bacillus Cereus, C: 29 mm
Pseudomonas aeruginosa; [2]
  inhibition zone, Pseudomonas aeruginosa, A: 25 mm
Pseudomonas aeruginosa; [3]
  inhibition zone, Pseudomonas aeruginosa, B: 27 mm
Pseudomonas aeruginosa; [4]
  inhibition zone, Pseudomonas aeruginosa, C: 41 mm
Escherichia coli; [2]
  inhibition zone, Escherichia coli, A: 28 mm
Escherichia coli; [3]
  inhibition zone, Escherichia coli, B: 37 mm
Escherichia coli; [4]
  inhibition zone, Escherichia coli, C: 51 mm
[1]; [2]
  inhibition zone, Chrysosporium keratinophilum, A: 24 mm
[1]; [3]
  inhibition zone, Chrysosporium keratinophilum, B: 26 mm
[1]; [4]
  inhibition zone, Chrysosporium keratinophilum, C: 47 mm
Aspergillus flavus; [2]
  inhibition zone, Aspergillus flavus, A: 23 mm
Aspergillus flavus; [3]
  inhibition zone, Aspergillus flavus, B: 27 mm
Aspergillus flavus; [4]
  inhibition zone, Aspergillus flavus, C: 36 mm

— patent US12172967B1, “3-(4,5-bis(4-bromophenyl)-2-(4-chlorophenyl)-1H-imidazol-1-yl)propanoic acid as an antimicrobial compound” (KING FAISAL UNIVERSITY, priority 2023, dated 2024)
